# Test results reported in BindingDB's records for doi:10.7270/Q2Q52N1X (Vanderbilt Screening Center for GPCRs, Ion Channels and …, 2009).
# Target: T1, Solute carrier family 12 member 5 (Homo sapiens, UniProt Q9H2X9)
# T1 sequence (Q9H2X9 whole entry): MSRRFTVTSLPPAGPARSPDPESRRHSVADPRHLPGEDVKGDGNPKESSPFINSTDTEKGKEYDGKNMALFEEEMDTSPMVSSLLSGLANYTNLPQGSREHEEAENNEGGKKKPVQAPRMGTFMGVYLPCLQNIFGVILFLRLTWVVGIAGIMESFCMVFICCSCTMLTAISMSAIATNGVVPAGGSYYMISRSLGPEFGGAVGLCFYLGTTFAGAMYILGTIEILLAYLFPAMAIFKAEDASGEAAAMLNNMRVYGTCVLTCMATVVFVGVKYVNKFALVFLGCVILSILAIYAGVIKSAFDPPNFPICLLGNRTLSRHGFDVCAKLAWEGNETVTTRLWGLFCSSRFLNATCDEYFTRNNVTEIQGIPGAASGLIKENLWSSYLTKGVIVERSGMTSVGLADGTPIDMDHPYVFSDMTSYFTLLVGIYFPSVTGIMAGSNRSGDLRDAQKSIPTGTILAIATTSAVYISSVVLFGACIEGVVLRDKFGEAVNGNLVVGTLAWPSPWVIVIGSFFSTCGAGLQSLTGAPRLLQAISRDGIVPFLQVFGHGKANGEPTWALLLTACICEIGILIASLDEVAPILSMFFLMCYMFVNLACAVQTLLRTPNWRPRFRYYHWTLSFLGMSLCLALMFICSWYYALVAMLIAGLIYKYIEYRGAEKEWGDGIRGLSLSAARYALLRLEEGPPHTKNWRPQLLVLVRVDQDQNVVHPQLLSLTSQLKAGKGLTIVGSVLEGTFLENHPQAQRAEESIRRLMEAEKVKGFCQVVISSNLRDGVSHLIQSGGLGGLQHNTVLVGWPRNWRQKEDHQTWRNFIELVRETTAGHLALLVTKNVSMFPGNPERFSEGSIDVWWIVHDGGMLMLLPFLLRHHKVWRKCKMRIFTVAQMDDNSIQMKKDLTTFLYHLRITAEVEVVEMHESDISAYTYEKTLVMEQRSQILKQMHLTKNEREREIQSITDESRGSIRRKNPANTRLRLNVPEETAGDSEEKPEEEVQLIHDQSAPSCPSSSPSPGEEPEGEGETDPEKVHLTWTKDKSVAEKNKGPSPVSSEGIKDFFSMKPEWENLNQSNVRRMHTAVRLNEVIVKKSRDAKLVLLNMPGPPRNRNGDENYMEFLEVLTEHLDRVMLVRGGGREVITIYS
# Test: concentration-response of KCC2 transport modulators – cell-based, HEK293 KCC2, FluoZin-2 fluorescence, dose response (AID 1736)
# Conditions: not given
row,SMILES,EC50
1,"O=C(C1CCN(S(=O)(=O)c2cccc3nsnc23)CC1)N1CCc2ccccc2C1 [2-{[1-(2,1,3-benzothiadiazol-4-ylsulfonyl)piperidin-4-yl]carbonyl}-1,2,3,4-tetrahydroisoquinoline]",34.1 µM
2,"O=[N+]([O-])c1ccc(CSc2nnc(SCc3ccccc3)s2)cc1 [2-(benzylthio)-5-[(4-nitrobenzyl)thio]-1,3,4-thiadiazole]",11.2 µM
3,O=S(=O)(NCCc1ccccc1F)c1cccc(S(=O)(=O)N2CCOCC2)c1 [MLS000076090],4040 µM
4,O=C(NC(=S)NNC(=O)c1cnccn1)c1ccc(Cl)cc1 [4-Chloro-N-[N'-(pyrazine-2-carbonyl)-hydrazinocarbothioyl]-benzamide],13 µM
5,O=C(NN=Cc1ccc(OCc2ccccc2)cc1)c1cc[n+](Cc2ccccc2)cc1 [1-benzyl-4-({2-[4-(benzyloxy)benzylidene]hydrazino}carbonyl)pyridinium chloride],563 µM
6,"O=C(CSc1nnc(CNc2ccccc2)o1)N1CCCc2ccccc21 [1-(3,4-Dihydro-2H-quinolin-1-yl)-2-(5-phenylaminomethyl-[1,3,4]oxadiazol-2-ylsulfanyl)-ethanone]",34.6 µM
7,"Cc1cc(C(=O)COC(=O)CCc2nc3ccccc3s2)c(C)n1C [3-(1,3-benzothiazol-2-yl)propanoic acid [2-oxo-2-(1,2,5-trimethyl-3-pyrrolyl)ethyl] ester]",16 µM
8,Cc1[nH]c2ccccc2c1SCC(=O)N1CCN(c2ccccc2)CC1 [2-[(2-methyl-1H-indol-3-yl)thio]-1-(4-phenyl-1-piperazinyl)ethanone],86.4 µM
9,"CC1Cc2ccccc2N1C(=O)CSc1nnc(CNc2ccccc2)o1 (configuration not stated) [1-(2-Methyl-2,3-dihydro-indol-1-yl)-2-(5-phenylaminomethyl-[1,3,4]oxadiazol-2-ylsulfanyl)-ethanone]",18.5 µM
10,COc1ccc(C(=O)N2CCCC(c3ccccc3)C2)cc1 (configuration not stated) [(4-methoxyphenyl)-(3-phenyl-1-piperidinyl)methanone],110 µM
11,Cc1[nH]c2ccccc2c1Cc1n[nH]c(=S)n1C,25.1 µM
12,c1ccc(-c2csc(N=NCc3ccco3)n2)cc1 [(2-furfurylideneamino)-(4-phenylthiazol-2-yl)amine],65 µM
13,COc1ccccc1-n1cnc2cc(NS(=O)(=O)c3ccccc3)ccc21 [MLS000032522],101 µM
14,"O=C(O)CCN(Cc1ccccc1)S(=O)(=O)c1c(Cl)cccc1Cl [3-[(2,6-dichlorophenyl)sulfonyl-(phenylmethyl)amino]propanoic acid]",53.1 µM

# Results, then the compound that gave them:
row,EC50,SMILES
1,11.1 µM,"Cc1ccc(Cn2nnc3c(=O)[nH]c(C4CCN(S(=O)(=O)c5ccc(F)cc5)CC4)nc32)cc1 [5-[1-(4-fluorophenyl)sulfonylpiperidin-4-yl]-3-[(4-methylphenyl)methyl]-2H-triazolo[4,5-d]pyrimidin-7-one]"
2,11.1 µM,"O=C(O)CCc1cc(I)c(Oc2ccc(O)c(I)c2)c(I)c1 [3-[4-(4-hydroxy-3-iodophenoxy)-3,5-diiodophenyl]propanoic acid]"
3,9.38 µM,"CCOc1ccc2nc(Sc3cc(O)n(-c4cccc(OC)c4)c3O)sc2c1 [3-(6-Ethoxy-benzothiazol-2-ylsulfanyl)-1-(3-methoxy-phenyl)-pyrrolidine-2,5-dione]"
4,9.14 µM,O=C(NCc1cccnc1)c1ccc(COc2ccccc2Br)o1 [5-[(2-bromanylphenoxy)methyl]-N-(pyridin-3-ylmethyl)furan-2-carboxamide]
5,8.63 µM,O=C(NCCCCc1ccccc1)C1CC(c2ccccc2[N+](=O)[O-])=NO1 (configuration not stated) [3-(2-nitrophenyl)-N-(4-phenylbutyl)-2-isoxazoline-5-carboxamide]
6,7.86 µM,"CCCCCN1C/C=C\C(c2ccc(OC)cc2)N(Cc2ccc(F)cc2)C(=O)C1 (configuration not stated) [(6Z)-1-amyl-4-(4-fluorobenzyl)-5-(4-methoxyphenyl)-5,8-dihydro-2H-1,4-diazocin-3-one]"
7,7.78 µM,"S=C(NCCc1ccccc1)NN=Cc1cccc(Cl)c1Cl [1-[(2,3-dichlorobenzylidene)amino]-3-phenethyl-thiourea]"
8,6.62 µM,"CCC(c1nnc(SCc2nc3ccccc3s2)n1Cc1ccccc1)N(C)C (configuration not stated) [1-[5-(1,3-benzothiazol-2-ylmethylsulfanyl)-4-(phenylmethyl)-1,2,4-triazol-3-yl]-N,N-dimethyl-propan-1-amine]"
9,6.56 µM,"N#CC(C(=O)COc1ccccc1)c1nc2ccccc2s1 (configuration not stated) [(2Z)-2-(3H-1,3-benzothiazol-2-ylidene)-3-keto-4-phenoxy-butyronitrile]"
10,6.49 µM,O=C(OCc1ccccn1)c1ccc(COc2ccccc2Cl)o1 [5-(2-Chloro-phenoxymethyl)-furan-2-carboxylic acid pyridin-2-ylmethyl ester]
11,5.57 µM,O=C(NCC1CCCO1)C(c1cccs1)N(C(=O)c1ccc(-c2ccccc2)[nH]1)C1CCCC1 (configuration not stated) [5-Phenyl-1H-pyrrole-2-carboxylic acid cyclopentyl-{[(tetrahydro-furan-2-ylmethyl)-carbamoyl]-thiophen-2-yl-methyl}-amide]
12,5.45 µM,CCc1ccc(C(=O)COC(=O)c2cc([N+](=O)[O-])ccc2NCCO)cc1 [2-(2-hydroxyethylamino)-5-nitro-benzoic acid [2-(4-ethylphenyl)-2-keto-ethyl] ester]
13,5.3 µM,"O=C(CSc1nnc(C2CC2)n1Cc1ccccc1)c1cc2ccccc2o1 [1-(1-benzofuran-2-yl)-2-[(4-benzyl-5-cyclopropyl-1,2,4-triazol-3-yl)sulfanyl]ethanone]"
14,4.63 µM,"COc1ccc(-n2cnnc2SCC(=O)Nc2cc(S(=O)(=O)N3CCCCC3)ccc2C)cc1 [2-[[4-(4-methoxyphenyl)-1,2,4-triazol-3-yl]sulfanyl]-N-(2-methyl-5-piperidin-1-ylsulfonyl-phenyl)ethanamide]"
15,4.18 µM,"O=C(C1CCN(S(=O)(=O)c2cccs2)CC1)N1CCc2ccccc2C1 [3,4-dihydro-1H-isoquinolin-2-yl-(1-thiophen-2-ylsulfonyl-4-piperidinyl)methanone]"
16,4.12 µM,"COC(=O)[C@@H](NC(=O)O[C@@H]1C(=O)c2ccc(OC)cc2O[C@H]1c1cccc(C(F)(F)F)c1)C(C)C [(2S)-2-[[(2S,3S)-4-keto-7-methoxy-2-[3-(trifluoromethyl)phenyl]chroman-3-yl]oxycarbonylamino]-3-methyl-butyric acid methyl ester]"
17,4.06 µM,"Sc1nnc(COc2ccc(Cl)cc2)o1 [5-(4-Chloro-phenoxymethyl)-3H-[1,3,4]oxadiazole-2-thione]"
18,3.98 µM,"COc1cc(C(=S)N2CCOCC2)cc(OC)c1OC(=O)Cc1ccc(F)cc1 [(2,6-dimethoxy-4-morpholin-4-ylcarbothioyl-phenyl) 2-(4-fluorophenyl)ethanoate]"
19,3.82 µM,"Cc1ccc(C)c(C(=O)NC(C)CCc2ccccc2)c1 (configuration not stated) [2,5-dimethyl-N-(1-methyl-3-phenyl-propyl)benzamide]"
20,2.16 µM,"Cc1ccc(-c2csc(NC(=O)CCNC(=O)c3ccccc3Cl)n2)cc1 [2-chloranyl-N-[3-[[4-(4-methylphenyl)-1,3-thiazol-2-yl]amino]-3-oxidanylidene-propyl]benzamide]"
21,1.54 µM,"Sc1nnc(C2(c3ccccc3)CCCC2)o1 [5-(1-phenylcyclopentyl)-3H-1,3,4-oxadiazole-2-thione]"
22,1.17 µM,"Cc1ccc(S(=O)(=O)N2CCC(=O)N(C(COCc3ccccc3)Cc3ccccc3)CC2)cc1 (configuration not stated) [1-(4-methylphenyl)sulfonyl-4-(1-phenyl-3-phenylmethoxy-propan-2-yl)-1,4-diazepan-5-one]"
23,0.00108 µM,CCCCNc1cc(C(=O)O)cc(S(N)(=O)=O)c1Oc1ccccc1 [Fordiuran]

# Same assay, conditions: inactive by the depositor's call
row,EC50,SMILES
1,33.3 µM,"COc1cc(C)c(C)cc1S(=O)(=O)N1CCN(Cc2ccccc2)CC1 [1-(2-methoxy-4,5-dimethyl-phenyl)sulfonyl-4-(phenylmethyl)piperazine]"
2,4610 µM,"O=c1cc(CSc2nnnn2-c2ccccc2)nc2scc(-c3ccccc3)n12 [3-phenyl-7-[(1-phenyl-1,2,3,4-tetrazol-5-yl)sulfanylmethyl]-[1,3]thiazolo[3,2-a]pyrimidin-5-one]"
3,69.9 µM,"O=C(CN1C(=O)NC(Cc2ccccc2)C1=O)NC(=O)NC1CCCCC1 (configuration not stated) [2-(4-benzyl-2,5-diketo-imidazolidin-1-yl)-N-(cyclohexylcarbamoyl)acetamide]"
4,20.6 µM,"CC(C)c1onc(C(=O)NCCc2ccccc2)c1[N+](=O)[O-] [4-nitro-N-(2-phenylethyl)-5-propan-2-yl-1,2-oxazole-3-carboxamide]"
5,6.36 µM,COc1ccc(S(=O)(=O)N(CCC(=O)O)Cc2ccccc2)cc1 [3-[(4-methoxyphenyl)sulfonyl-(phenylmethyl)amino]propanoic acid]
